Data reported in patent publication US20260184691A1, “INHIBITORS AND DEGRADERS OF PIP4K PROTEIN” (Larkspur Biosciences, Inc., priority 2022, published 2026).

Target: T1, endogenous PIP4K2C C-terminally tagged with HiBiT peptide in MOLT-4 cells (Homo sapiens, UniProt Q8TBX8)
T1 construct: to C-terminally tag endogenous PIP4K2C with HiBiT peptide; host or cells: MOLT-4 (CRISPR-Cas9 knock-in clone)
T1 sequence (Q8TBX8 1-421): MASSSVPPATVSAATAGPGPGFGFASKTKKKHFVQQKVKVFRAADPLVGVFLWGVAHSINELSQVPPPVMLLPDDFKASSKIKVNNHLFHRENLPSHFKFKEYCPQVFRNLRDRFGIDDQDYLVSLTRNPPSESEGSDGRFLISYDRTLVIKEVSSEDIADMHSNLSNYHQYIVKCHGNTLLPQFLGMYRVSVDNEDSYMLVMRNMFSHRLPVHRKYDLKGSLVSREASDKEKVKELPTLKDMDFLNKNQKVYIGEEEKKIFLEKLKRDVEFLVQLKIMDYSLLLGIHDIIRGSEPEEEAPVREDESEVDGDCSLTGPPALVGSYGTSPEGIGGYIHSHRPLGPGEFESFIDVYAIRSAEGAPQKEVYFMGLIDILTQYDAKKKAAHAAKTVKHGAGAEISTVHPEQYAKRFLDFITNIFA
Assay: HiBiT PIP4K2C degradation assay in MOLT-4 cells
Assay type: cell-based
Details: 24 hours, 10-point dose response, top concentration 10 micromolar, read-out: HiBIT-degradation MOLT4 PIP4k2C 24 hours DC50
Protocol: Following clonal selection, genotype was confirmed by Sanger sequencing. […] Nano-Glo® HiBiT Lytic Assay System was purchased from Promega (Madison, WI, Catalog number N3030). Cell culture flasks and 384-well microplates were purchased from Corning (Glendale, AZ).
To study PIP4K2C degradation, 384-well plates were plated with a 10-point dose response curve, 3-fold dilution, in duplicate with a top starting concentration of 10 micromolar. Subsequently 22,500 cells were added to each well and incubated at 37C in 5% CO2 for 24 hours. At the end of the incubation time, cells were treated with the Nano-Glo® HiBiT Lytic Detection System following the manufacturer's instructions. Luminescence was measured with a PHERAstar FSX plate reader (BMG Labtech, Cary, NC). The Levenberg-Marquardt algorithm was used to fit a Hill equation to dose-response data to calculate DC50 values (see Table 6).

Row | DC50 [µM] | SMILES
1 | < 0.5 | O=C1CCC(N2Cc3cc(OCCCCCCCCC(=O)N4CCC5(CC4)CCN(c4cncc(Nc6ncc(Cl)c(-c7cccc(-c8ccccc8)c7)n6)c4)C5=O)ccc3C2=O)C(=O)N1 (stereo not drawn) [Compound 62, 3-(5-((9-(2-(5-((4-([1,1′-biphenyl]-3-yl)-5-chloropyrimidin-2-yl)amino)pyridin-3-yl)-1-oxo-2,8-diazaspiro[4.5]decan-8-yl)-9-oxononyl)oxy)-1-oxoisoindolin-2-yl)piperidine-2,6-dione]
2 | < 0.5 | O=C1CCC(Nc2ccc(N3CCC(CC(=O)N4CCC5(CC4)CCN(c4cncc(Nc6ncc(Cl)c(N7CCOC(c8ccccc8)C7)n6)c4)C5=O)CC3)cc2)C(=O)N1 (stereo not drawn) [Compound 181, 3-((4-(4-(2-(2-(5-((5-chloro-4-(2-phenylmorpholino)pyrimidin-2-yl)amino)pyridin-3-yl)-1-oxo-2,8-diazaspiro[4.5]decan-8-yl)-2-oxoethyl)piperidin-1-yl)phenyl)amino)piperidine-2,6-dione]

Target: T2, Human PIP4K2C (Homo sapiens, UniProt Q8TBX8)
T2 construct: purchased Eurofins DiscoverX 87-0007-1094
T2 sequence (Q8TBX8 1-421): T1 sequence (Q8TBX8 1-421)
Assay: Enzyme binding assay (KINOMEscan), active site-directed competition binding
Details: 11-point dose response, duplicate, top concentration 5 micromolar; read-out: Pip4k2c Kd: IC50
How it was run: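 Active site-directed competition against immobilized ligand. 11-point dose response in duplicate, top concentration 5 micromolar; IC50 from Hill fit by Levenberg-Marquardt.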

Row | SMILES | IC50 [µM]
3 | CN1CCC(c2cccc(-c3nc(Nc4cncc(N5CCCC5=O)c4)ncc3Cl)c2)CC1 [Compound 27, 1-(5-((5-chloro-4-(3-(1-methylpiperidin-4-yl)phenyl)pyrimidin-2-yl)amino)pyridin-3-yl)pyrrolidin-2-one] | < 0.5
4 | CN1CCN(c2cncc(Nc3ncc(Cl)c(-c4cccc(-c5ccccc5)c4)n3)c2)C1=O [Compound 32, 1-(5-((4-([1,1′-biphenyl]-3-yl)-5-chloropyrimidin-2-yl)amino)pyridin-3-yl)-3-methylimidazolidin-2-one] | < 0.5
5 | O=C1CCCN1c1cncc(Nc2ncc(Cl)c(N3CCc4ccccc4C3)n2)c1 [Compound 128, 1-(5-((5-chloro-4-(3,4-dihydroisoquinolin-2(1H)-yl)pyrimidin-2-yl)amino)pyridin-3-yl)pyrrolidin-2-one] | < 0.5
6 | O=C1CCCN1c1cncc(Nc2ncc(Cl)c(N3Cc4ccccc4C3)n2)c1 [Compound 130, 1-(5-((5-chloro-4-(isoindolin-2-yl)pyrimidin-2-yl)amino)pyridin-3-yl)pyrrolidin-2-one] | < 0.5
7 | Cn1cc(-c2nc(Nc3cncc(N4CCCC4=O)c3)ncc2Cl)cn1 [Compound 90, 1-(5-((5-chloro-4-(1-methyl-1H-pyrazol-4-yl)pyrimidin-2-yl)amino)pyridin-3-yl)pyrrolidin-2-one] | < 0.5
8 | O=C1CCCN1c1cncc(Nc2ncc(Cl)c(N3CCCc4ccccc43)n2)c1 [Compound 127, 1-(5-((5-chloro-4-(3,4-dihydroquinolin-1(2H)-yl)pyrimidin-2-yl)amino)pyridin-3-yl)pyrrolidin-2-one] | < 0.5
9 | O=C1CCCN1c1cncc(Nc2ncc(Cl)c(N3CCC(N4CCCC4)C3)n2)c1 (stereo not drawn) [Compound 37, 1-(5-((4-([1,3′-bipyrrolidin]-1′-yl)-5-chloropyrimidin-2-yl)amino)pyridin-3-yl)pyrrolidin-2-one] | < 0.5
10 | Cc1ccc(-c2ccccc2)cc1-c1nc(Nc2cncc(N3CCCC3=O)c2)ncc1Cl [Compound 10, 1-(5-((5-chloro-4-(4-methyl-[1,1′-biphenyl]-3-yl)pyrimidin-2-yl)amino)pyridin-3-yl)pyrrolidin-2-one] | < 0.5
11 | O=C1CCCN1c1cncc(Nc2ncc(Cl)c(N3CCCC(C4CCCC4)C3)n2)c1 (stereo not drawn) [Compound 131, 1-(5-((5-chloro-4-(3-cyclopentylpiperidin-1-yl)pyrimidin-2-yl)amino)pyridin-3-yl)pyrrolidin-2-one] | < 0.5
12 | O=C1CCCN1c1cncc(Nc2ncc(Cl)c(N3CCC(N4CCCCC4)C3)n2)c1 (stereo not drawn) [Compound 121, 1-(5-((5-chloro-4-(3-(piperidin-1-yl)pyrrolidin-1-yl)pyrimidin-2-yl)amino)pyridin-3-yl)pyrrolidin-2-one] | < 0.5
13 | O=C1CCCN1c1cncc(Nc2ncc(Cl)c(-c3ccc(F)cc3Cl)n2)c1 [Compound 112, 1-(5-((5-chloro-4-(2-chloro-4-fluorophenyl)pyrimidin-2-yl)amino)pyridin-3-yl)pyrrolidin-2-one] | < 0.5
14 | O=C1CCCN1c1cncc(Nc2ncc(Cl)c(N3CCC[C@H](c4ccccc4)C3)n2)c1 [Compound 44, (R)-1-(5-((5-chloro-4-(3-phenylpiperidin-1-yl)pyrimidin-2-yl)amino)pyridin-3yl)pyrrolidin-2-one] | < 0.5
15 | O=C1CCCN1c1cncc(Nc2ncc(Cl)c(N3CCCC(C(F)(F)F)C3)n2)c1 (stereo not drawn) [Compound 101, 1-(5-((5-chloro-4-(3-(trifluoromethyl)piperidin-1-yl)pyrimidin-2-yl)amino)pyridin-3-yl)pyrrolidin-2-one] | < 0.5
16 | Cc1ccc(-c2nc(Nc3cncc(N4CCCC4=O)c3)ncc2Cl)cc1-c1ccccc1 [Compound 7, 1-(5-((5-chloro-4-(6-methyl-[1,1′-biphenyl]-3-yl)pyrimidin-2-yl)amino)pyridin-3-yl)pyrrolidin-2-one] | < 0.5
17 | Cc1cc(F)ccc1-c1nc(Nc2cncc(N3CCCC3=O)c2)ncc1Cl [Compound 113, 1-(5-((5-chloro-4-(4-fluoro-2methylphenyl)pyrimidin-2-yl)amino)pyridin-3-yl)pyrrolidin-2-one] | < 0.5
18 | O=C1CCCN1c1cncc(Nc2ncc(Cl)c(N3C(=O)CC[C@@H]3c3ccccc3)n2)c1 [29, Enant B] | 0.5 to 1
19 | COc1ccc(-c2cccc(-c3nc(Nc4cncc(N5CCCC5=O)c4)ncc3Cl)c2)cc1 [Compound 5, 1-(5-((5-chloro-4-(4′-methoxy-[1,1′-biphenyl]-3-yl)pyrimidin-2-yl)amino)pyridin-3-yl)pyrrolidin-2-one] | < 0.5
20 | O=C1CCCN1c1cncc(Nc2ncc(Cl)c(-c3ccc(C4CC4)cc3)n2)c1 [Compound 13, 1-(5-((5-chloro-4-(4-cyclopropylphenyl)pyrimidin-2-yl)amino)pyridin-3-yl)pyrrolidin-2-one] | < 0.5
21 | Cc1ccccc1-c1nc(Nc2cncc(N3CCCC3=O)c2)ncc1Cl [Compound 116, 1-(5-((5-chloro-4-(o-tolyl)pyrimidin-2-yl)amino)pyridin-3-yl)pyrrolidin-2-one] | < 0.5

Second part, the molecule after the results:

Row | IC50 [µM] | SMILES
22 | < 0.5 | O=C1CCCN1c1cncc(Nc2ncc(Cl)c(C3CCCN(c4ccccc4)C3)n2)c1 (stereo not drawn) [Compound 141, 1-(5-((5-chloro-4-(1-phenylpiperidin-3-yl)pyrimidin-2-yl)amino)pyridin-3-yl)pyrrolidin-2-one]
23 | 0.5 to 1 | O=C1CCCN1c1ccnc(Nc2ncc(Cl)c(-c3cccc(C4CCCCC4)c3)n2)c1 [Compound 150, 1-(2-((5-chloro-4-(3-cyclohexylphenyl)pyrimidin-2-yl)amino)pyridin-4-yl)pyrrolidin-2-one]
24 | < 0.5 | O=C(c1cc[nH]c(=O)c1)N1CCCC(c2nc(Nc3cncc(N4CCCC4=O)c3)ncc2Cl)C1 (stereo not drawn) [Compound 164, 4-(3-(5-chloro-2-((5-(2-oxopyrrolidin-1-yl)pyridin-3-yl)amino)pyrimidin-4-yl)piperidine-1-carbonyl)pyridin-2(1H)-one]
25 | < 0.5 | O=C1CCCN1c1cncc(Nc2ncc(F)c(-c3cnn(C4COC4)c3)n2)c1 [Compound 148, 1-(5-((5-fluoro-4-(1-(oxetan-3-yl)-1H-pyrazol-4-yl)pyrimidin-2-yl)amino)pyridin-3-yl)pyrrolidin-2-one]
26 | < 0.5 | O=C1CCCN1c1cncc(Nc2ncc(Cl)c(-c3cnn(C4CCCC4)c3)n2)c1 [Compound 138, 1-[5-[[5-chloro-4-(1-cyclopentylpyrazol-4-yl)pyrimidin-2-yl]amino]-3-pyridyl]pyrrolidin-2-one]
27 | < 0.5 | O=C(c1ccc(F)cc1)N1CCC(c2nc(Nc3cncc(N4CCCC4=O)c3)ncc2Cl)C1 (stereo not drawn) [Compound 159, 1-(5-((5-chloro-4-(1-(4-fluorobenzoyl)pyrrolidin-3-yl)pyrimidin-2-yl)amino)pyridin-3-yl)pyrrolidin-2-one]
28 | < 0.5 | O=C(c1ccc[nH]c1=O)N1CCCC(c2nc(Nc3cncc(N4CCCC4=O)c3)ncc2Cl)C1 (stereo not drawn) [Compound 165, 3-(3-(5-chloro-2-((5-(2-oxopyrrolidin-1-yl)pyridin-3-yl)amino)pyrimidin-4-yl)piperidine-1-carbonyl)pyridin-2(1H)-one]
29 | < 0.5 | O=C(c1ccc(=O)[nH]c1)N1CCCC(c2nc(Nc3cncc(N4CCCC4=O)c3)ncc2Cl)C1 (stereo not drawn) [Compound 163, 5-[3-[5-chloro-2-[[5-(2-oxopyrrolidin-1-yl)-3-pyridyl]amino]pyrimidin-4-yl]piperidine-1-carbonyl]-1H-pyridin-2-one]
30 | < 0.5 | O=C1CCCN1c1cncc(Nc2ncc(Cl)c(C3CCCN(C4CCC4)C3)n2)c1 (stereo not drawn) [Compound 145, 1-(5-((5-chloro-4-(1-cyclobutylpiperidin-3-yl)pyrimidin-2-yl)amino)pyridin-3-yl)pyrrolidin-2-one]
